Measured values taken from patent US8273769B2, “Phenoxy acetic acid derivatives” (Merck Serono SA, priority 2009, dated 2012).

How the values were obtained:
[1] = tested on: FITC induced contact hypersensitivity in mice; test: FITC 1 week model (FITC induced contact hypersensitivity, ear swelling); type: in vivo, Balb/C mice; details: oral gavage, 24 h after challenge
From the text: Fluorescein isothiocyanate (FITC) induced contact hypersensitivity (CHS) is a commonly used model for atopic dermatitis (AD). The hapten FITC is a small molecule that is able to elicit an immune response only when attached to a larger carrier such as a protein. It is reactive towards e-amino groups (lysine). The immune response to FITC sensitization and challenge is Th2 cytokine driven (IL-4, IL-5, IL-6, IL-10 and IL-13) and associated with elevated serum IgE levels. The skin inflammation at the site of the challenge is characterized by edema and eosinophil infiltrations.
Female 9 week old Balb/C mice were sensitized on days 0 and 1 with 0.5% FITC in acetone/dibuthylphtalate (A/DBP). One group (sham) was sensitized with A/DBP alone. On day 6 all the mice including the sham group were challenged on the right ear (inner and outer surface) with 0.5% FITC in A/DBP. The mice were treated with the compounds via oral gavage 1 h before and 7 h after the challenge. The baseline ear thickness was measured before the challenge and 24 h after the challenge. At the end of the experiment (24 h after the challenge) the mice were sacrificed. Serum and plasma samples were taken. The challenged ear was excised and stored at −80° C. Compounds of Formula (I) of the present invention were tested at 3, 10 and 30 mg/Kg.

[2] = molecular target: T1, CRTH2 (Homo sapiens, UniProt Q9Y5Y4); test: [35S]GTPγS binding assay (CHO-CRTH2 cell membranes); type: biochemical; parameters: expressed in transfected cells; host or cells: CHO-CRTH2 cells; details: for Emax: inverse agonists, 100% of Emax = activity with 1 μM PGD2; for IC50: antagonist mode, fixed concentration of PGD2 (EC80)
T1 sequence (Q9Y5Y4 1-395): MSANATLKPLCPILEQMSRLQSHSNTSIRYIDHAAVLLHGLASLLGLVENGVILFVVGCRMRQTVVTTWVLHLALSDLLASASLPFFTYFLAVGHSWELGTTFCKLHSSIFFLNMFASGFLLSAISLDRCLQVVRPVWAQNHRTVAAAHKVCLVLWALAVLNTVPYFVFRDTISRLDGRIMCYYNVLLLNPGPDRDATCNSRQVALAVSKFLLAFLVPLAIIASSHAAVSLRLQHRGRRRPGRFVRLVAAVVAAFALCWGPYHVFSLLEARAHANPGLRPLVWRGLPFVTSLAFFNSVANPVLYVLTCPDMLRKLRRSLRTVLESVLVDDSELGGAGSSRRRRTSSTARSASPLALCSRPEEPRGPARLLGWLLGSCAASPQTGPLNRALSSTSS
Procedure: Adherent CHO cells expressing hCRTH2 (Euroscreen, Belgium) were cultured in 225 cm^2 cell culture flasks (Corning, USA) in 30 ml of medium. After two rinses of phosphate buffered saline (PBS), cells were harvested in 10 ml of PBS containing 1 mM EDTA, centrifuged at 500×g for 5 min at 4° C. and frozen at −80° C. The pellet was re-suspended in 50 mM Tris-HCl, pH 7.4, 2 mM EDTA, 250 mM Sucrose, containing protease inhibitor cocktail tablets, (Complete EDTA-free, Roche, Germany) and incubated 30 min at 4° C. Cells were disrupted by nitrogen cavitation (Parr Instruments, USA) at 4° C. (800 p.s.i. for 30 min), and centrifuged at 500×g for 10 min at 4° C. Pellet containing nuclei and cellular debris was discarded and supernatant was centrifuged 60 min at 4° C. at 45000×g. Membrane pellet was re-suspended in storage buffer (10 mM HEPES/KOH pH 7.4, 1 mM EDTA, 250 mM sucrose, protease inhibitor cocktail tablets) using Dounce homogenization and frozen in liquid nitrogen, and stored at −80° C.
The [^35S]GTPγS assay measures the increase in guanine nucleotide exchange at G-proteins in cell membranes, resulting from agonist (PGD2) binding to CRTH2. This process can be monitored in vitro by incubating cell membranes containing G-proteins and CRTH2 with GDP and [^35S]GTPγS, a radiolabeled, hydrolysis-resistant analogue of GTP (see, Harrison et al., Life Sciences 74, 489-508, 2003). The addition of a Compounds of Formula (I) results in binding to CRTH2 and thus in an inhibition of agonist binding, which can be monitored as inhibition of the stimulation of GTP/GDP exchange.
Briefly, Compounds of Formula (I) are incubated in 96-well scintillating white polystyrene plates (Perkin Elmer, USA) in a final volume of 200 μl containing 20 mM HEPES/KOH pH 7.4, 3 mM MgCl2, 10 μg/ml Saponin, 5 μM GDP, 75 mM NaCl and 2% of dimethylsulphoxide (DMSO). Reaction is triggered by the addition of 5-10 μg of CHO-CRTH2 cell membranes and 0.15 nM [^35S]GTPγS. After 60 min incubation at 30° C., reaction is stopped by centrifugation at 700×g, at 4° C. for 10 minutes and supernatant is removed. The radioactivity coming from the [^35S]GTPγS bound on centrifuged cell membranes is recorded using a 1450 Micro-beta scintillation counter. For IC50 determination, increasing concentrations of compounds are incubated in presence of a fixed concentration of PGD2 (EC80). For EC50 measurements, compounds are incubated without addition of PGD2. Basal [^35S]GTPγS activity is determined without addition of any ligands or compounds. 100% [^35S]GTPγS activity is measured by the addition of 1 μM of PGD2.

[3] = tested on: OVA-induced lung eosinophilia in mice; test: OVA-induced lung eosinophilia in mice; type: in vivo, BALB/c mice; details: BAL fluid, oral gavage
Procedure: BALB/c mice (6-8 weeks old) were immunized with ovalbumin (10 μg i.p) on day 0 and 7. In order to elicit a local inflammatory response in the lung, mice were challenged between day's 15-17 with a nebulised solution of ovalbumin (10 μg/ml; De Vilibiss Ultraneb 2000, once daily for 30 min during the 3 days). On each separate day between 15 and 17 each animal received via oral gavage the test compound, at t−1 h and t+7 h with respect to OVA exposure at t=0 h. Eight hours after the final OVA challenge, bronchoalveolar lavage (BAL) was then carried out. Total cell numbers in the BAL fluid samples were measured using a haemocytometer. Cytospin smears of the BAL fluid samples were prepared by centrifugation at 1200 rpm for 2 min at room temperature and stained using a DiffQuik stain system (Dade Behring) for differential cell counts. […]

| Structure (SMILES) | % inhibition of ear swelling (mean ± s.e.m.) ([1]; dose 3 mg/kg) [%] | % inhibition of ear swelling (mean ± s.e.m.) ([1]; dose 10 mg/kg) [%] | % inhibition of ear swelling (mean ± s.e.m.) ([1]; dose 30 mg/kg) [%] | Emax [2] [%] | % inhibition eosinophils (mean ± s.e.m.) ([3]; dose 3 mg/kg) [%] | % inhibition total cells (mean ± s.e.m.) ([3]; dose 3 mg/kg) [%] | % inhibition eosinophils (mean ± s.e.m.) ([3]; dose 10 mg/kg) [%] | % inhibition total cells (mean ± s.e.m.) ([3]; dose 10 mg/kg) [%] | % inhibition eosinophils (mean ± s.e.m.) ([3]; dose 30 mg/kg) [%] | % inhibition total cells (mean ± s.e.m.) ([3]; dose 30 mg/kg) [%] | IC50 [2] [nM] |
| --- | --- | --- | --- | --- | --- | --- | --- | --- | --- | --- | --- |
| O=C(O)COc1ccc(Cl)cc1C#Cc1ccc2c(c1)S(=O)(=O)c1ccccc1-2 [Example 154, {4-chloro-2-[(5,5-dioxidodibenzo[b,d]thien-3-yl)ethynyl]phenoxy}acetic acid] | 41 ± 9 | 49 ± 9 | 54 ± 17 | -17 |  |  |  |  |  |  |  |
| CCCS(=O)(=O)c1ccc(C)c(C#Cc2cc(Cl)ccc2OCC(=O)O)c1 [Example 38, (4-chloro-2-{[2-methyl-5-(propylsulfonyl)phenyl]ethynyl}phenoxy)acetic acid] | 23 ± 16 | 56 ± 12 | 52 ± 12 |  | 29 ± 14 | 21 ± 13 | 54 ± 16 | 42 ± 14 | 81 ± 7 | 67 ± 8 | 6 |
| CCCS(=O)(=O)c1ccc(F)c(C#Cc2cc(Cl)ccc2OCC(=O)O)c1 [Example 89, (4-chloro-2-{[2-fluoro-5-(propylsulfonyl)phenyl]ethynyl}phenoxy)acetic acid] | 36 ± 19 | 54 ± 16 | 48 ± 11 |  | 19 ± 18 | 12 ± 15 | 27 ± 10 | 19 ± 8 | 55 ± 11 | 44 ± 10 |  |
| CN(C)S(=O)(=O)c1cncc(C#Cc2cc(Cl)ccc2OCC(=O)O)c1 [Example 35, [4-chloro-2-({5-[(dimethylamino)sulfonyl]pyridin-3-yl}ethynyl)phenoxy]acetic acid] |  |  |  |  |  |  |  |  |  |  | 126 |
| CN(C)S(=O)(=O)c1ccc(F)c(C#Cc2cc(Cl)ccc2OCC(=O)O)c1 [Example 107, [4-chloro-2-({5-[(dimethylamino)sulfonyl]-2-fluorophenyl}ethynyl)phenoxy]acetic acid] |  |  |  | -13 |  |  |  |  |  |  |  |
| CC(C)S(=O)(=O)c1ccc(F)c(C#Cc2cc(Cl)ccc2OCC(=O)O)c1 [Example 102, (4-chloro-2-{[2-fluoro-5-(isopropylsulfonyl)phenyl]ethynyl}phenoxy)acetic acid] |  |  |  |  |  |  |  |  |  |  | 4 |
